Several values for one entry are separate records, joined by “and”; a condition that tells them apart may be missing. Equal entries are not always repeated.
Test system: HD model flies (elav-GAL4 UAS-htt128Q)
Experiment: Assay of locomotor activity (climbing speed) using the transgenic Drosophila HD model
Format: in vivo
Design: Early Speed Effect Size, Summary / Late Speed Effect Size, Summary / Early Speed Effect Size / Late Speed Effect Size / Early Speed Adj Value / Late Speed Adj Value / Early Speed Effect Size, combined campaigns / Late Speed Effect Size, combined campaigns: unit not given here
Settings: for Early Speed Effect Size, combined campaigns / Early Speed Percent TSA, combined campaigns / Early Speed Effect Size / Early Speed Adj Value / Early Speed Percent TSA: days 1 to 7; for Early Speed Effect Size, combined campaigns / Early Speed Percent TSA, combined campaigns / Late Speed Effect Size, combined campaigns / Late Speed Percent TSA, combined campaigns: drawing 84; for Late Speed Effect Size, combined campaigns / Late Speed Percent TSA, combined campaigns / Late Speed Percent TSA / Late Speed Adj Value / Late Speed Effect Size: days 8 to 10; for Early Speed Effect Size, Summary / Early Speed Percent TSA, Summary: days 1-7; for Late Speed Effect Size, Summary / Late Speed Percent TSA, Summary: days 8-10; for Early Speed Effect Size: food conc 50 (unit not printed; b38: μM); for Early Speed Effect Size / Late Speed Effect Size: vs DMSO carrier; for Early Speed Effect Size / Early Speed Adj Value / Early Speed Percent TSA / Late Speed Percent TSA / Late Speed Adj Value / Late Speed Effect Size: single campaigns; for Early Speed Percent TSA: effect size as percentage of positive control TSA; for Late Speed Percent TSA: effect size as percentage of TSA
Protocol: Female “activator” or “driver” flies were engineered to contain the neuronal specific drivers elav-GAL4 or nirvana-GAL4 in a heat shock-hid Y (phs-hidY or HS-hid+ on Y chomosome) background (Starz-Gaiano et al., 2001). The hid gene is a pro-apoptotic gene, which is expressed in this line by a heat inducible promoter. These flies can be heat shocked in bottles twice over 2 days for 2 hours to kill male larvae and thereby produce massive numbers of elav-GAL4 or nirvana-GAL4 virgin females.
For the mass production of males (either UAS-htt128Q[F27B]/UAS-htt128Q[F27B], the disease transgenes were moved into lines that contain an attached X-chromosome with the same phs-hid element (X^XPhs-hidY) used above. In this scheme the hid gene is present only in female flies and therefore is used to produce large numbers of male flies by heat shock. The massive collection of virgin female elav-GAL4 flies are crossed with the massive collection of males that contain the silent disease-transgene. Their progeny, the F1 generation, are the “assay flies” (e.g., elav-GAL4UAS-htt128Q[F27B]). These assay flies are robotically distributed into drugged assay vials.
The HD Drosophila model express exons 1 to 4 of the human huntingtin gene with 128Q repeats in exon 1. The construct was cloned into the Drosophila transformation vector, pUAST. These were then crossed to GAL4 driver lines that direct expression either to the eye (GMR-GAL4 promoter) or to neurons (elav-GAL4 promoter). […] Progressive degeneration of the photoreceptors was observed after several days of adult life. The properties of the HD128Q flies were consistent with those reported by others for two other strains in which exon-1 containing expanded repeats was expressed in the eye (Jackson et al., 1998; Steffan et al., 2001—US20040142859). To test the effects on motor function of the HD mutation, HD128Q lines were examined in which the transgene was expressed in all neurons. Motor function was assayed by tapping flies in a vial to the bottom and measuring the number of flies that are able to climb to a specified height within a specific length of time. When tapped to the bottom of a vial, wild-type flies rapidly climb to the top, where most of them remain. […] The decline in motor performance was progressive, leading to early death. […] The HD128Q model thus has a functional deficit that in its phenotypic and neuropathological characteristics appears to be related to that seen in the human disease. Moreover, as the deficit is quantifiable and reproducible, it is suitable for automated high-throughput screening.
Standard environmental conditions were followed to establish that different metrics detect differences between disease and control flies. A comparison of compound-treated HD flies and untreated HD flies was also included. The positive control compound tested was the Histone Deacetylase (HDAC) inhibitor Trichostatin-A (TSA).
In an assay run (typically corresponding to one day of an entire multi-day assay) the following process was followed. Each tube was dropped onto a surface, causing the flies to fall to the bottom of the tube and be subjected to impact shock stimulation. Their immediate negative geotaxis response to that event was thereafter captured in a 7.5 second movie. For each tube, this step was repeated five times, giving a total of five repeat videos per tube and run. The raw data for each video were analyzed and trajectories following the movements of individual flies in a tube were generated. The method for analyzing fly trajectories is described in published U.S. Patent Application 2004/0076318A1, which is hereby incorporated by reference in its entirety. The trajectories consisted of a list of x- and y-coordinates mapping out the positions of all the flies in the video, as well as measurements of size, orientation, length and width of the flies, with one list entry for every frame from when the fly started moving in one frame until it stopped in another. […]

[1] = conc 50, campaigns drawing 83, drawing 85
[2] = conc 100, campaigns drawing 74, drawing 76, drawing 83, drawing 89
[3] = conc 150, campaigns drawing 83, drawing 86, drawing 88, drawing 89
[4] = dose 50, weighted average of campaigns drawing 83, drawing 84 (Table 1)
[5] = dose 100, weighted average of campaigns drawing 74, drawing 76, drawing 83, drawing 84 (Table 1)
[6] = dose 150, weighted average of campaigns drawing 83, drawing 84 (Table 1)
[7] = food conc 50, listed as CLOTRIMAZOLE

Clc1ccccc1C(c1ccccc1)(c1ccccc1)n1ccnc1 [clotrimazole]
Early Speed Effect Size, combined campaigns [1]: 0.867 | Early Speed Percent TSA, combined campaigns [1]: 37.7% | Late Speed Effect Size, combined campaigns [1]: 1.076 | Late Speed Percent TSA, combined campaigns [1]: 36.3% | Early Speed Effect Size, combined campaigns [2]: 0.89 | Early Speed Percent TSA, combined campaigns [2]: 32% | Late Speed Effect Size, combined campaigns [2]: 1.372 | Late Speed Percent TSA, combined campaigns [2]: 36.8% | Early Speed Effect Size, combined campaigns [3]: 1.211 | Early Speed Percent TSA, combined campaigns [3]: 43.8% | Late Speed Effect Size, combined campaigns [3]: 1.664 | Late Speed Percent TSA, combined campaigns [3]: 42.8% | Early Speed Effect Size, Summary [4]: 0.8 | Early Speed Percent TSA, Summary [4]: 25.9% | Late Speed Effect Size, Summary [4]: 1.43 | Late Speed Percent TSA, Summary [4]: 35.7% | Early Speed Effect Size, Summary [5]: 1.13 | Early Speed Percent TSA, Summary [5]: 39.6% | Late Speed Effect Size, Summary [5]: 1.42 | Late Speed Percent TSA, Summary [5]: 39.6% | Early Speed Effect Size, Summary [6]: 1.35 | Early Speed Percent TSA, Summary [6]: 41.6% | Late Speed Effect Size, Summary [6]: 1.8 | Late Speed Percent TSA, Summary [6]: 42.7% | Climbing assay, dose dependence (doses 50, 100, 150 (Table 1)): dose-dependent effect | Early Speed Effect Size: 0.73 and 0.88 | Early Speed Effect Size (listed as CLOTRIMAZOLE): 0.725 and 0.882 and 0.932 | Early Speed Adj Value (food conc 50 (μM)): 11.2 and 10.98 and 10.15 | Early Speed Percent TSA (food conc 50): 26.3% and 25.4% | Early Speed Percent TSA [7]: 26.3% and 25.4% and 48.8% | Late Speed Percent TSA (food conc 50): 38.8% and 31.5% | Late Speed Percent TSA [7]: 38.8% and 31.5% and 36.8% | Late Speed Adj Value (food conc 50): 6.587 and 5.802 and 6.193 | Late Speed Effect Size (food conc 50): 1.46 and 1.39 | Late Speed Effect Size [7]: 1.458 and 1.39 and 0.767 | Early Speed Adj Value (food conc 100 (μM)): 10.12 and 11.32 and 11.4873 and 10.63 and 10.84 | Late Speed Adj Value (food conc 100): 5.805 and 5.534 and 6.208 and 6.981 and 6.155 | Early Speed Adj Value (food conc 150 (unit not given)): 11.15 and 11.68 and 10.57 and 10.74 and 11.13 | Late Speed Adj Value (food conc 150): 6.189 and 6.817 and 5.855 and 5.983 and 6.595 | Effect in Drosophila model of HD (vs carrier controls, metrics early speed (days 1-7) and late speed (days 8-10)): reproducible positive effects

— patent US20070037800A1, “Method of treating neurological disorders using clotrimazole and derivatives thereof” (EnVivo Pharmaceuticals, Inc., priority 2005, published 2007)
